Assay results as given in ChEMBL document CHEMBL5500322, “The significance of persisters in tuberculosis drug discovery: Exploring the potential of targeting the glyoxylate shunt pathway” (Eur J Med Chem, 2024).
Converted amounts (≈) assume the structure as drawn.

Key:
[1] = system: Mycobacterium tuberculosis; assay: Antibacterial activity against Mycobacterium tuberculosis H37Rv (ATCC 27294) assessed as bacterial growth inhibition incubated for 7 days by microdilution alamarBlue assay; assay type: functional; details: 168 h, time 7 day
[2] = Inhibition of N-terminal His-tagged isocitrate lyase (unknown origin) expressed in Escherichia coli BL21 (DE3)
[3] = Binding affinity to indigofera isocitrate lyase assessed as inhibition of constant; design: species or system Vogesella indigofera
[4] = Inhibition of N-terminal His-tagged Mycobacterium tuberculosis malate synthase expressed in Escherichia coli BL21 (DE3)
[5] = Inhibition of Mycobacterium tuberculosis isocitrate lyase
[6] = system: Mycobacterium tuberculosis; assay: Inhibition of Mycobacterium tuberculosis isocitrate lyase at 0.05 microg/ml relative to control; details: dose 0.05 µg/ml
[7] = system: Mycobacterium tuberculosis; assay: Inhibition of Mycobacterium tuberculosis malate synthase at 1 uM relative to control
[8] = system: Mycobacterium tuberculosis; assay: Binding affinity to Mycobacterium tuberculosis isocitrate lyase assessed as inactivation constant
[9] = system: Mycobacterium tuberculosis; assay: Antimycobacterial activity against Mycobacterium tuberculosis assessed as reduction in bacterial growth; assay type: functional
[10] = system: Escherichia coli; assay: Antibacterial activity against Escherichia coli assessed as reduction in bacterial growth; assay type: functional, organism-based
[11] = system: Mycobacterium tuberculosis; assay: Antimycobacterial activity against Mycobacterium tuberculosis H37Rv assessed as reduction in bacterial growth measured after 7 days by broth dilution method; assay type: functional; details: 168 h, time 7 day
[12] = system: Mycobacterium tuberculosis; assay: Antimycobacterial activity against Mycobacterium tuberculosis H37Rv assessed as inhibition of bacterial growth incubated for 24 hrs by alamar blue assay; assay type: functional
[13] = Binding affinity to Mycobacterium tuberculosis Malate synthase assessed as inhibition constant

Compound: COC(=O)/C=C/C(=O)c1ccc(OC)cc1
- MIC [1]: 0.25 µg/mL (≈ 1.14 µM)
- IC50 ([2]; read-out: IC50): 30.9 µM

Compound: O=C(O)CC[N+](=O)[O-]
- Ki [3]: 120 µM

Compound: O=C(O)/C(O)=C/C(=O)c1ccccc1
- IC50 [4]: 2 µM

Compound: CCCCCCCCCCCCC(=O)NNC(=O)c1c(O)c2ccccc2n(CC)c1=O
- IC50 [5]: 134.4 µg/mL (≈ 303 µM)

Compound: COc1ccc2cc(CCC(=O)CC(Nc3ccc(C(=O)O)cc3)c3ccc(Cl)cc3)ccc2c1 (centres undefined)
- inhibition [6]: 57.4%

Compound: O=C(O)CC(O)C(=O)O (centres undefined)
- inhibition [7]: 50%

Compound: O=C(O)[C@@H](C[N+](=O)[O-])[C@@H](O)C(=O)O
- Kinact [8]: 1.3 10^3/M.s

Compound: O=C(O)[C@H]1O[C@H]1C(=O)O
- Kinact [8]: 0.01 10^3/M.s

Compound: Nc1ccc(C(=O)O)c(O)c1 [AMINOSALICYLIC ACID]
- MIC [9]: ≥ 125 µM

Compound: O=C(O)C(=O)CBr [BROMOPYRUVATE]
- IC50 [10]: 3 µM

Compound: COc1ccc2c(c[n+](C)c3c4cc5c(cc4ccc23)OCO5)c1OC [CHELERYTHRINE]
- MIC [11]: 8 µg/mL

Compound: O=c1ccc2ccc(O)c(O)c2o1 [DAPHNETIN]
- IC50 [2]: 4.34 µg/mL
- MIC [12]: 128 µg/mL (≈ 719 µM)

Compound: O=CC(=O)O [GLYOXYLATE]
- Ki [13]: 900 µM

Compound: C=C(CC(=O)O)C(=O)O [ITACONATE]
- Ki [3]: 120 µM

Compound: O=C(O)C(=O)O [OXALIC ACID]
- Ki [13]: 400 µM

Compound: C=C(OP(=O)(O)O)C(=O)O [PHOSPHOENOLPYRUVATE]
- Ki [13]: 200 µM

Compound: Nc1ccc(S(=O)(=O)Nc2nccs2)cc1 [SULFATHIAZOLE]
- MIC [9]: ≥ 125 µM
